Reference: ChEMBL document CHEMBL1146824, “Synthesis and evaluation of indenopyrazoles as cyclin-dependent kinase inhibitors. Part 4: Heterocycles at C3” (Bioorg Med Chem Lett, 2004)

Tests used:
[1] = Binding affinity for Cyclin-dependent kinase 4-cyclin E
[2] = biological target: Cyclin-dependent kinase 4/cyclin D1 (Homo sapiens, UniProt P11802); assay: Binding affinity for Cyclin-dependent kinase 4-cyclin D1; type: protein-complex assay
HCT-116 [3] = assay: Inhibition of HCT116 cellular proliferation; type: functional, cell-based; details: Homo sapiens
HCT-116 [4] = assay: Inhibition of HCT116 cell proliferation in the presence of human serum albumin and alpha-1-acidglycoprotein; type: functional, cell-based
AG1523 [5] = assay: Inhibition of proliferation AG1523 (human fibroblast) cell line.; type: functional, cell-based
HCT-116 [6] = assay: Inhibition of cellular proliferation of HCT116 cell line in the presence of human serum albumin and alpha-1-acidglycoprotein; type: functional, cell-based
AG1523 [7] = assay: Inhibition of AG1523 (arrested) cell proliferation; type: functional, cell-based; details: Homo sapiens
B16 = assay: Inhibition of B16-F1 cell proliferation; type: functional, cell-based; details: Mus musculus
[8] = biological target: Cyclin-dependent kinase 2/cyclin A (Homo sapiens, UniProt P24941); assay: Inhibition of Cyclin-dependent kinase 2-cyclin A; type: protein-complex assay
[9] = biological target: Cyclin-dependent kinase 1/cyclin B (Homo sapiens, UniProt P06493); assay: Inhibition of cyclin-dependent kinase 1-cyclin B; type: protein-complex assay
NCI-H1299 = assay: Inhibition of H1299 cell proliferation; type: functional, cell-based; details: Homo sapiens
HT-1080 = assay: Inhibition of HT1080 cell proliferation; type: functional, cell-based; details: Homo sapiens
HMEC = assay: Inhibition of HMEC cell proliferation; type: functional, cell-based; details: Homo sapiens
L1210 = assay: Inhibition of L1210 cell proliferation; type: functional, cell-based; details: Mus musculus
MCF7 = assay: Inhibition of MCF-7 cell proliferation; type: functional, cell-based; details: Homo sapiens
MIA PaCa-2 = assay: Inhibition of MiaPaCa2 cell proliferation; type: functional, cell-based; details: Homo sapiens
NCI-H460 = assay: Inhibition of NCI-H460 cell proliferation; type: functional, cell-based; details: Homo sapiens
NCI-H358 = assay: Inhibition of NCI-H358 cell proliferation; type: functional, cell-based; details: Homo sapiens
PC-3 = assay: Inhibition of PC3 cell proliferation; type: functional, cell-based; details: Homo sapiens
[10] = biological target: cAMP-dependent protein kinase (PKA) (Homo sapiens, UniProt P22694+P17612+P22612); assay: Inhibition of protein kinase A; type: protein assay
[11] = biological target: Tyrosine-protein kinase ABL1 (Homo sapiens, UniProt P00519); assay: Inhibition of c-Abl tyrosine kinase
Chain of Tyrosine-protein kinase ABL1 (P00519 whole entry): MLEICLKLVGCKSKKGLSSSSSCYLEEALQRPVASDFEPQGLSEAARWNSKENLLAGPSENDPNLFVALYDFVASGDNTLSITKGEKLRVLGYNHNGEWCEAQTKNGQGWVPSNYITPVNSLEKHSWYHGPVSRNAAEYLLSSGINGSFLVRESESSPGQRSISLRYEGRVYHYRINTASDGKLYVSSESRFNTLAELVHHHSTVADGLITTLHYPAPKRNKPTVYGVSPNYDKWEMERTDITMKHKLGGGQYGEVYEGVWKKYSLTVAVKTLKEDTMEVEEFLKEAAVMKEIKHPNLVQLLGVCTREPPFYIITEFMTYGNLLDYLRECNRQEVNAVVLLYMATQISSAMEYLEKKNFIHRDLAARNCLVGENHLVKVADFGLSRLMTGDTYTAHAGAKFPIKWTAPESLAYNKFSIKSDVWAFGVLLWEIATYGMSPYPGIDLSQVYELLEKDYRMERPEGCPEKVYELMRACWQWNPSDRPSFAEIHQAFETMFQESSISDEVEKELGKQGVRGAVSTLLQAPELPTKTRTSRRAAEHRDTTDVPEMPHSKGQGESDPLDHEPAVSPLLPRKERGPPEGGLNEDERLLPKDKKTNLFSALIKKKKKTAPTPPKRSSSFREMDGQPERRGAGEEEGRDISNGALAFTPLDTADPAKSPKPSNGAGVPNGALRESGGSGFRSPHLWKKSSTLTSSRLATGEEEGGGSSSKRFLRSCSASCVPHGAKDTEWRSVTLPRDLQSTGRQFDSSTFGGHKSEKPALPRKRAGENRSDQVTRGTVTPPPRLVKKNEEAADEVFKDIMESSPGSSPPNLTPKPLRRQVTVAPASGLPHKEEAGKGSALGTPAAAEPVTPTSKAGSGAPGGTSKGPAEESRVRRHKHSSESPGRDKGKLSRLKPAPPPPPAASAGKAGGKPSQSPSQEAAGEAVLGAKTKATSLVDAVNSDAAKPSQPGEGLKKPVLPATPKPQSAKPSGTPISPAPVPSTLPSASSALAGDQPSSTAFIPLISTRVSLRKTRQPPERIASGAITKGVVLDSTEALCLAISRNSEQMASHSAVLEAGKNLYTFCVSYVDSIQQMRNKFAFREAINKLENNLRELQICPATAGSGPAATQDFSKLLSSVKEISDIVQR

HT-29 = assay: Inhibition of HT-29 cell proliferation; type: functional, cell-based; details: Homo sapiens
SKUT-1A = assay: Inhibition of Skut 1A cell proliferation; type: functional, cell-based; details: Homo sapiens

Chain of Cyclin-dependent kinase 4/cyclin D1 (P11802 whole entry): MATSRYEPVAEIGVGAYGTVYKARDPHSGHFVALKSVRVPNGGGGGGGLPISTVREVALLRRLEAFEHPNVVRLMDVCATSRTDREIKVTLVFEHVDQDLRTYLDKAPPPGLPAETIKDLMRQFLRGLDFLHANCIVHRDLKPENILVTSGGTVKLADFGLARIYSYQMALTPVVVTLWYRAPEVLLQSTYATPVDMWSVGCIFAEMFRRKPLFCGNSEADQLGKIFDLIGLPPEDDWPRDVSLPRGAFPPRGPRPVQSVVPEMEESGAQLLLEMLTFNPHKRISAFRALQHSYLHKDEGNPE
Chain of Cyclin-dependent kinase 4/cyclin D1 (P24385 whole entry, further chain): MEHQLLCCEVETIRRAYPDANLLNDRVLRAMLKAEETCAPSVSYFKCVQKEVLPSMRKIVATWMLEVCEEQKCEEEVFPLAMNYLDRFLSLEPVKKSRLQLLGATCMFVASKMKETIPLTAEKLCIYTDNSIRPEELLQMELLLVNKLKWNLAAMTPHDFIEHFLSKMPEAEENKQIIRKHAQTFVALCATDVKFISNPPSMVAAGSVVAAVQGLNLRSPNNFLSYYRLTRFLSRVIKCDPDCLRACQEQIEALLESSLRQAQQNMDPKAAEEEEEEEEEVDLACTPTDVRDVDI

SMILES	IC50 [1] [nM]	IC50 [2] [nM]	IC50 (HCT-116 [3]) [nM]	IC50 (AG1523 [5]) [nM]	also measured
Cc1nc(C)c(-c2[nH]nc3c2C(=O)c2c(NC(=O)NN4CCOCC4)cccc2-3)s1	9	> 370	8	> 19000	IC50 (HCT-116 [4]): 500 nM
CN(C)NC(=O)Nc1cccc2c1C(=O)c1c(-c3ccco3)n[nH]c1-2	26	635	160		
CN(C)NC(=O)Nc1cccc2c1C(=O)c1c(-c3ccsc3)n[nH]c1-2	24	107	68	605	
Cc1cc(-c2n[nH]c3c2C(=O)c2c(NC(=O)NN4CCN(C)CC4)cccc2-3)c(C)s1	12	90	24	205	
CN(C)NC(=O)Nc1cccc2c1C(=O)c1c(-c3csc(Cl)c3)n[nH]c1-2	7	21	64	615	
Cc1cc(-c2n[nH]c3c2C(=O)c2c(NC(=O)NN(C)C)cccc2-3)c(C)s1	26	515	110	1500	
O=C(Nc1cccc2c1C(=O)c1c-2n[nH]c1-c1csc(Cl)c1)NN1CCOCC1	10	7	35	385	
CCOC(=O)c1ccc(-c2[nH]nc3c2C(=O)c2c(NC(=O)NN4CCN(C)CC4)cccc2-3)s1	36	30	46		
CN(C)NC(=O)Nc1cccc2c1C(=O)c1c(-c3cccs3)n[nH]c1-2	36	340	75	905	
Cc1ccc(-c2n[nH]c3c2C(=O)c2c(NC(=O)NN(C)C)cccc2-3)s1	25	81	48	640	
CCOC(=O)c1ccc(-c2[nH]nc3c2C(=O)c2c(NC(=O)NN(C)C)cccc2-3)s1	28	185	380	2800	
O=C(Nc1cccc2c1C(=O)c1c(-c3ccc(C(=O)NCCN4CCOCC4)s3)n[nH]c1-2)NN1CCOCC1	51	86	860		
Cc1nc(C)c(-c2n[nH]c3c2C(=O)c2c(NC(=O)NN(C)C)cccc2-3)s1	4	150			
Cc1cc(-c2[nH]nc3c2C(=O)c2c(NC(=O)NN4CCOCC4)cccc2-3)c(C)s1	< 8	125	25	345	
Cc1nc(C)c(-c2[nH]nc3c2C(=O)c2c(NC(=O)NN4CCN(C)CC4)cccc2-3)s1		46	14	> 21000	IC50 (AG1523 [7]): > 21000 nM; IC50 (B16): 160 nM; IC50 [8]: 13 nM; IC50 [9]: 6 nM; IC50 (HCT-116 [4]): 260 nM; IC50 (NCI-H1299): 12 nM; IC50 (HT-1080): 30 nM; IC50 (HMEC): 55 nM; IC50 (L1210): 105 nM; IC50 (MCF7): 23 nM; IC50 (MIA PaCa-2): 26 nM; IC50 (NCI-H460): 104 nM; IC50 (NCI-H358): 18 nM; IC50 (PC-3): 125 nM; IC50 [10]: > 42000 nM; IC50 [11]: 17600 nM; IC50 (HT-29): 87 nM; IC50 (SKUT-1A): 25 nM
COc1ccc(-c2[nH]nc3c2C(=O)c2c(NC(=O)NN(C)C)cccc2-3)s1	32	84	130	1550	
O=C(Nc1cccc2c1C(=O)c1c(-c3ccc(C(=O)NCCN4CCCCC4)s3)n[nH]c1-2)NN1CCOCC1	31	22	20	255	

Continued, in another order:

IC50 [1] [nM]	IC50 [2] [nM]	IC50 (HCT-116 [3]) [nM]	SMILES	IC50 (AG1523 [5]) [nM]	also measured
21	15	> 800	CN(C)CCNC(=O)c1ccc(-c2[nH]nc3c2C(=O)c2c(NC(=O)NN4CCOCC4)cccc2-3)s1		
14	7	33	CCN1CCCN(C(=O)c2ccc(-c3[nH]nc4c3C(=O)c3c(NC(=O)NN5CCOCC5)cccc3-4)s2)CC1		IC50 (HCT-116 [4]): 7100 nM
6	3	195	O=C(Nc1cccc2c1C(=O)c1c(-c3ccc(C(=O)N4CCCNCC4)s3)n[nH]c1-2)NN1CCOCC1		IC50 (HCT-116 [4]): > 19700 nM
25	22	52	O=C(Nc1cccc2c1C(=O)c1c(-c3ccc(C(=O)N4CCCCC4)s3)n[nH]c1-2)NN1CCOCC1		IC50 (HCT-116 [6]): 16800 nM
11	5	230	CNC1CCN(C(=O)c2ccc(-c3[nH]nc4c3C(=O)c3c(NC(=O)NN5CCOCC5)cccc3-4)s2)C1 (configuration not stated)		IC50 (HCT-116 [4]): 8500 nM
39	35	> 800	NC1CCN(C(=O)c2ccc(-c3[nH]nc4c3C(=O)c3c(NC(=O)NN5CCOCC5)cccc3-4)s2)C1 (configuration not stated)		
32	10	110	CN1CCN(C(=O)c2ccc(-c3[nH]nc4c3C(=O)c3c(NC(=O)NN5CCOCC5)cccc3-4)s2)CC1	485	IC50 (HCT-116 [6]): 9940 nM
24	13	188	CN(C)C1CCCN(C(=O)c2ccc(-c3[nH]nc4c3C(=O)c3c(NC(=O)NN5CCOCC5)cccc3-4)s2)C1 (configuration not stated)		IC50 (HCT-116 [6]): 11800 nM
19	5	63	CCN1CCN(C(=O)c2ccc(-c3[nH]nc4c3C(=O)c3c(NC(=O)NN5CCOCC5)cccc3-4)s2)CC1		IC50 (HCT-116 [6]): 14300 nM
31	30	110	CCOC(=O)c1ccc(-c2[nH]nc3c2C(=O)c2c(NC(=O)NN4CCOCC4)cccc2-3)s1	> 17000	IC50 (HCT-116 [4]): 3200 nM
44	12	64	CN(C)C1CCN(C(=O)c2ccc(-c3[nH]nc4c3C(=O)c3c(NC(=O)NN5CCOCC5)cccc3-4)s2)C1 (configuration not stated)	330	IC50 (HCT-116 [4]): 2540 nM
25	23	475	O=C(Nc1cccc2c1C(=O)c1c(-c3ccc(C(=O)NCCN4CCCC4)s3)n[nH]c1-2)NN1CCOCC1	680	
23	8	210	CN(C)C1CCN(C(=O)c2ccc(-c3[nH]nc4c3C(=O)c3c(NC(=O)NN5CCOCC5)cccc3-4)s2)CC1	1000	IC50 (HCT-116 [6]): > 15100 nM
15	4	19	CN1CCCN(C(=O)c2ccc(-c3[nH]nc4c3C(=O)c3c(NC(=O)NN5CCOCC5)cccc3-4)s2)CC1	63	IC50 (HCT-116 [4]): 870 nM
23	17	53	O=C(Nc1cccc2c1C(=O)c1c(-c3ccc(C(=O)N4CCCCCC4)s3)n[nH]c1-2)NN1CCOCC1		IC50 (HCT-116 [4]): 8320 nM
38	4	700	O=C(Nc1cccc2c1C(=O)c1c(-c3ccc(C(=O)N4CCNCC4)s3)n[nH]c1-2)NN1CCOCC1		IC50 (HCT-116 [6]): 15400 nM
10	23	25	Cc1ccc(-c2[nH]nc3c2C(=O)c2c(NC(=O)NN4CCOCC4)cccc2-3)s1	285	
